Data reported in ChEMBL document CHEMBL2203270, “POMA analyses as new efficient bioinformatics' platform to predict and optimise bioactivity of synthesized 3a,4-dihydro-3H-indeno[1,2-c]pyrazole-2-carboxamide/carbothioamide analogues” (Bioorg Med Chem Lett, 2012).
≈ marks a conversion by molar mass, not a printed value. Calls of active or inactive are those of the source. The rule behind the calls is not given here.

What was measured:
Mus musculus [1] = assay: Neurotoxicity in mouse assessed as minimal motor impairment at 100 mg/kg, ip measured at 4 hr by rotarod test; type: toxicity, organism-based; parameters: dose 100 mg/kg, route intraperitoneal; details: in vivo
Mus musculus [2] = assay: Neurotoxicity in mouse assessed as minimal motor impairment at 100 mg/kg, ip measured at 2 hr by rotarod test; type: toxicity, organism-based; parameters: dose 100 mg/kg, route intraperitoneal; details: in vivo
Mus musculus [3] = assay: Neurotoxicity in mouse assessed as minimal motor impairment at 100 mg/kg, ip measured at 1 hr by rotarod test; type: toxicity, organism-based; parameters: dose 100 mg/kg, route intraperitoneal; details: in vivo
Mus musculus [4] = assay: Neurotoxicity in mouse assessed as minimal motor impairment at 100 mg/kg, ip measured at 0.25 hr by rotarod test; type: toxicity, organism-based; parameters: dose 100 mg/kg, route intraperitoneal; details: in vivo
Mus musculus [5] = assay: Neurotoxicity in mouse assessed as minimal motor impairment at 100 mg/kg, ip measured at 0.5 hr by rotarod test; type: toxicity, organism-based; parameters: dose 100 mg/kg, route intraperitoneal; details: in vivo
Mus musculus [6] = assay: Anticonvulsant activity in mouse assessed as protection against clonic seizure at 100 mg/kg, ip measured at 4 hr; type: functional, organism-based; parameters: dose 100 mg/kg
Mus musculus [7] = assay: Anticonvulsant activity in mouse assessed as protection against clonic seizure at 100 mg/kg, ip measured at 2 hr; type: functional, organism-based; parameters: dose 100 mg/kg
Mus musculus [8] = assay: Anticonvulsant activity in mouse assessed as protection against clonic seizure at 100 mg/kg, ip measured at 1 hr; type: functional
Mus musculus [9] = assay: Anticonvulsant activity in mouse assessed as protection against clonic seizure at 100 mg/kg, ip measured at 0.5 hr; type: functional
Mus musculus [10] = assay: Anticonvulsant activity in mouse assessed as protection against clonic seizure at 100 mg/kg, ip measured at 0.25 hr; type: functional
[11] = tested on: Human immunodeficiency virus 2; assay: Antiviral activity against HIV-2 ROD infected in MT4 cells assessed as protection against virus-induced cytopathicity relative to control; type: functional; details: Human immunodeficiency virus 2, ISOLATE ROD
[12] = Cytotoxicity against mock-infected human MT4 cells assessed as decrease in cell viability by MTT assay; type: cell-based
[13] = tested on: Human immunodeficiency virus 1; assay: Antiviral activity against HIV-1 3B infected in MT4 cells assessed as protection against virus-induced cytopathicity relative to control; type: functional; details: Human immunodeficiency virus 1, 3B
[14] = tested on: Human immunodeficiency virus 1; assay: Antiviral activity against HIV-1 3B infected in MT4 cells assessed as inhibition of virus-induced cytopathicity; type: functional, organism-based; details: Human immunodeficiency virus 1, 3B
[15] = tested on: Human immunodeficiency virus 2; assay: Antiviral activity against HIV-2 ROD infected in MT4 cells assessed as inhibition of virus-induced cytopathicity; type: functional, organism-based; details: Human immunodeficiency virus 2, ISOLATE ROD
Aspergillus niger = assay: Antimicrobial activity against Aspergillus niger NCIM 1196 by broth dilution technique; type: functional
Candida albicans = assay: Antimicrobial activity against Candida albicans NCIM 3471 by broth dilution technique; type: functional
Pseudomonas aeruginosa = assay: Antimicrobial activity against Pseudomonas aeruginosa ATCC 10145 by broth dilution technique; type: functional
Escherichia coli = assay: Antimicrobial activity against Escherichia coli NCIM 5051 by broth dilution technique; type: functional
Bacillus subtilis = assay: Antimicrobial activity against Bacillus subtilis NCIM 2439 by broth dilution technique; type: functional
Staphylococcus aureus = assay: Antimicrobial activity against Staphylococcus aureus NCIM 2079 by broth dilution technique; type: functional

Compound	Activity (Mus musculus [1])	Activity (Mus musculus [2])	Activity (Mus musculus [3])	Emax [11] [%]	CC50 [12] [µM]	Emax [13] [%]	IC50 [14] [µM]	IC50 [15] [µM]	MFC (Aspergillus niger) [mg/L]	MIC (Aspergillus niger) [mg/L]	MFC (Candida albicans) [mg/L]	MIC (Candida albicans) [mg/L]	MBC (Pseudomonas aeruginosa) [mg/L]	MIC (Pseudomonas aeruginosa) [mg/L]	MBC (Escherichia coli) [mg/L]	MIC (Escherichia coli) [mg/L]	MBC (Bacillus subtilis) [mg/L]	MIC (Bacillus subtilis) [mg/L]	MBC (Staphylococcus aureus) [mg/L]	MIC (Staphylococcus aureus) [mg/L]	also measured
COc1cc2c(cc1OC)C1=NN(C(=O)Nc3ccc(F)c(Cl)c3)C(c3ccccc3Cl)C1C2 (stereo unspecified)	Non-toxic	Non-toxic	Toxic	1	11.8	5	> 11.8	> 11.8	–	–	–	–	–	–	–	–	–	–	–	–	Activity (Mus musculus [4]): Non-toxic; Activity (Mus musculus [5]): Non-toxic; Activity (Mus musculus [6]): inactive; Activity (Mus musculus [7]): inactive; Activity (Mus musculus [8]): inactive; Activity (Mus musculus [9]): inactive; Activity (Mus musculus [10]; route intraperitoneal): 75%
COc1cc2c(cc1OC)C1=NN(C(=O)Nc3ccc(Cl)cc3)C(c3ccccc3Cl)C1C2 (stereo unspecified)	Non-toxic	Non-toxic	Non-toxic	2	22.9	2	> 22.9	> 22.9	–	–	–	–	–	–	–	–	–	–	–	–	Activity (Mus musculus [4]): Non-toxic; Activity (Mus musculus [5]): Non-toxic; Activity (Mus musculus [6]): inactive; Activity (Mus musculus [7]): inactive; Activity (Mus musculus [8]; route intraperitoneal): 50%; Activity (Mus musculus [9]; route intraperitoneal): 75%; Activity (Mus musculus [10]): inactive
COc1cc2c(cc1OC)C1=NN(C(=O)Nc3ccc(Cl)cc3)C(c3ccc(F)cc3)C1C2 (stereo unspecified)	Non-toxic	Non-toxic	Non-toxic	2	25.8	2	> 25.8	> 25.8	–	–	–	–	–	–	–	–	–	–	–	–	Activity (Mus musculus [4]): Non-toxic; Activity (Mus musculus [5]): Non-toxic; Activity (Mus musculus [6]): inactive; Activity (Mus musculus [7]): inactive; Activity (Mus musculus [8]; route intraperitoneal): 75%; Activity (Mus musculus [9]; route intraperitoneal): 100%; Activity (Mus musculus [10]; route intraperitoneal): 100%
COc1ccc(C2C3Cc4cc(OC)c(OC)cc4C3=NN2C(=O)Nc2ccc(F)c(Cl)c2)cc1OC (stereo unspecified)	Non-toxic	Non-toxic	Non-toxic	38	223	12	> 223	> 223	–	–	–	–	–	–	–	–	–	–	–	–	Activity (Mus musculus [4]): Non-toxic; Activity (Mus musculus [5]): Non-toxic; Activity (Mus musculus [6]): inactive; Activity (Mus musculus [7]): inactive; Activity (Mus musculus [8]; route intraperitoneal): 50%; Activity (Mus musculus [9]; route intraperitoneal): 50%; Activity (Mus musculus [10]): inactive
COc1cc2c(cc1OC)C1=NN(C(N)=O)C(c3ccc(F)cc3)C1C2 (stereo unspecified)	–	–	–	9	151	3	> 151	> 151	> 512	128 (≈ 360 µM)	> 512	128 (≈ 360 µM)	16 (≈ 45 µM)	8 (≈ 22.5 µM)	16 (≈ 45 µM)	8 (≈ 22.5 µM)	16 (≈ 45 µM)	8 (≈ 22.5 µM)	16 (≈ 45 µM)	8 (≈ 22.5 µM)	–
COc1ccc(C2C3Cc4cc(OC)c(OC)cc4C3=NN2C(N)=O)cc1 (stereo unspecified)	–	–	–	6	150	3	> 150	> 150	8 (≈ 21.8 µM)	4 (≈ 10.9 µM)	2 (≈ 5.44 µM)	2 (≈ 5.44 µM)	> 512	64 (≈ 174 µM)	> 512	32 (≈ 87.1 µM)	> 512	128 (≈ 348 µM)	> 512	64 (≈ 174 µM)	–
COc1cc2c(cc1OC)C1=NN(C(N)=O)C(c3ccccc3Cl)C1C2 (stereo unspecified)	–	–	–	3	6.47	3	> 6.47	> 6.47	> 512	256 (≈ 688 µM)	> 512	128 (≈ 344 µM)	256 (≈ 688 µM)	16 (≈ 43 µM)	256 (≈ 688 µM)	16 (≈ 43 µM)	256 (≈ 688 µM)	16 (≈ 43 µM)	256 (≈ 688 µM)	16 (≈ 43 µM)	–
COc1cc2c(cc1OC)C1=NN(C(N)=S)C(c3ccccc3)C1C2 (stereo unspecified)	–	–	–	12	28.4	2	> 28.4	> 28.4	> 512	128 (≈ 362 µM)	> 512	128 (≈ 362 µM)	> 512	256 (≈ 724 µM)	> 512	128 (≈ 362 µM)	> 512	256 (≈ 724 µM)	> 512	256 (≈ 724 µM)	–
COc1cc2c(cc1OC)C1=NN(C(N)=S)C(c3ccc(F)cc3)C1C2 (stereo unspecified)	–	–	–	9	39.9	5	> 39.9	> 39.9	> 512	64 (≈ 172 µM)	> 512	32 (≈ 86.2 µM)	8 (≈ 21.5 µM)	4 (≈ 10.8 µM)	8 (≈ 21.5 µM)	4 (≈ 10.8 µM)	8 (≈ 21.5 µM)	4 (≈ 10.8 µM)	8 (≈ 21.5 µM)	4 (≈ 10.8 µM)	–
COc1cc2c(cc1OC)C1=NN(C(N)=O)C(c3ccncc3)C1C2 (stereo unspecified)	–	–	–	5	40.4	4	> 40.4	> 40.4	> 512	256 (≈ 757 µM)	> 512	256 (≈ 757 µM)	> 512	16 (≈ 47.3 µM)	> 512	8 (≈ 23.6 µM)	> 512	16 (≈ 47.3 µM)	> 512	16 (≈ 47.3 µM)	–
COc1cc2c(cc1OC)C1=NN(C(N)=S)C(c3ccccc3Cl)C1C2 (stereo unspecified)	–	–	–	1	6.87	0	> 6.87	> 6.87	> 512	128 (≈ 330 µM)	> 512	64 (≈ 165 µM)	256 (≈ 660 µM)	16 (≈ 41.2 µM)	128 (≈ 330 µM)	8 (≈ 20.6 µM)	128 (≈ 330 µM)	16 (≈ 41.2 µM)	128 (≈ 330 µM)	16 (≈ 41.2 µM)	–
COc1ccc(C2C3Cc4cc(OC)c(OC)cc4C3=NN2C(N)=O)cc1OC (stereo unspecified)	–	–	–	30	151	6	> 151	> 151	512 (≈ 1290 µM)	32 (≈ 80.5 µM)	512 (≈ 1290 µM)	32 (≈ 80.5 µM)	> 512	128 (≈ 322 µM)	> 512	64 (≈ 161 µM)	> 512	128 (≈ 322 µM)	> 512	128 (≈ 322 µM)	–
